Measured values taken from patent publication US8470587B2, “129Xe biosensors and their use” (The Trustees of the University of Pennsylvania, priority 2006, dated 2013).
Ends that are not written are not given here.

What was measured:
[1] = 278 K in C2D2Cl4; cited from earlier work
[2] = system: cells; experiment: cytotoxicity, standard MTT assay; assay type: cell-based; conditions: 1-100 μM, 24 h soak, average of four trials
Method: Cytotoxicity was assessed using a standard MTT assay protocol.

[3] = system: CAPAN-2; experiment: cellular uptake by confocal microscopy; assay type: cell-based; conditions: 15 minutes incubation; 2 μM, 2 mM; cells expressing αvβ3 integrin
Method: (§1) Cells were incubated with 2 mM tetraRGD-cryptophane for 15 minutes, washed, and imaged via confocal microscope. […] A-B) CAPAN-2, C-D) HFL-1, E-F) NCI-H1975, G-H) human red blood cells.
(§2) Cellular uptake was confirmed via confocal microscopy. Cells were incubated with 2 μM tetraRGD-cryptophane for 15 minutes, washed, and imaged via confocal microscope. […] A-B) CAPAN-2, C-D) HFL-1, E-F) NCI-H1975, G-H) human red blood cells.

[4] = system: HFL-1; experiment: cellular uptake by confocal microscopy; assay type: cell-based; conditions: 15 minutes incubation; 2 μM, 2 mM; cells expressing αvβ3 integrin
Method: as §1, §2

[5] = system: NCI-H1975; experiment: cellular uptake by confocal microscopy; assay type: cell-based; conditions: 15 minutes incubation; 2 μM, 2 mM; cells expressing αvβ3 integrin
Method: as §1, §2

[6] = system: human red blood cells; experiment: cellular uptake by confocal microscopy; assay type: cell-based; conditions: 15 minutes incubation; 2 μM, 2 mM; cells not expressing αvβ3; listed as tetraRGD-cryptophane
Method: as §1, §2

[7] = system: lung and pancreatic cancer cell lines; experiment: cell uptake of tetraRGD Xe biosensor, blocking by cyclic RGD peptide; assay type: cell-based
Excerpt: Very efficient uptake by Xe biosensors containing tetraRGD was found in lung and pancreatic cancer cell lines, and no uptake by red blood cells, as shown in FIGS. 26 and 27.

For `COc1cc2c3cc1OCCOc1cc4c(cc1OC)Cc1cc5c(OC)cc1Cc1cc(c(OC)cc1C4)OCCOc1cc(c(cc1OC)C3)Cc1cc(OC)c(cc1C2)OCCO5` [cryptophane-A], the “KA of xenon binding” value [1] is given as 3900 M⁻¹.
With “Cy3-labelled ^129Xe biosensor: cryptophane biosensor containing the tetra-RGD peptide (RGDRGDRGDRGD, SEQ ID. No. 30), labeled with Cy3, targeting αvβ3 integrin (also: cryptophane cage conjugated, Cy3 labeled; listed as Homo sapiens)” the “cytotoxicity (cell viability relative to healthy controls)” value [2] was “non-toxic”, the “cytotoxicity (cell viability relative to healthy controls)” value ([2]; listed as Cy3 dye-labeled ^129Xe biosensor) was “not toxic” and the “cellular uptake (fluorescence)” value [3] was “exhibited fluorescence”. For the same compound, the “cellular uptake (fluorescence)” value [4] was “exhibited fluorescence”, the “cellular uptake (fluorescence)” value [5] was “exhibited fluorescence” and the “cellular uptake (fluorescence)” value [6] was “showed little fluorescence”. For the same compound, the “cell uptake in presence of cyclic RGD peptide” value [7] was “blocked”.
